{
  "source": "patent US9469878B2",
  "about": "“Methods of treating cancer comprising targeting NQO1” (The Board of Regents of the University of Texas System, priority 2010, dated 2016)",
  "key": {"Calu-3/NSCLC": {"tested_on": "Calu-3/NSCLC", "test": "β-lapachone lethality in NQO1 genotyped cancer cells", "assay_type": "cell-based, human", "description": "(§1) Cell lines, mostly from a 5-panel nonsmall cell lung cancer panel from the UT Southwestern SPORE, were assessed for NQO1 polymorphism status and then monitored for NQO1 enzyme assays using β-lapachone or the standard menadione substrates. Cell line responses to β-lapachone exposures (μM, 2 h) were then assessed and lethal doses causing 50% lethality with or without dicoumarol (40 μM) co-treatments were recorded. NQO1*2/*2 and *3/*3 polymorphisms were detected from NQO1 *1/*1 wild-type sequences by PCR-RFLP. Genomic DNA was extracted from the cells using Qiagen spin columns. Using previously described oligonucleotide primers, PCR products underwent gel electrophoresis. Final genotyping was determined based on the size and pattern of separated bands diagnostic for *1/*1 (wild-type), or polymorphic *2/*2 or *3/*3 NQO1 polymorphisms."}, "H2073": {"tested_on": "H2073", "test": "β-lapachone lethality in NQO1 genotyped cancer cells", "assay_type": "cell-based, human", "description": "as §1"}, "HCC2935": {"tested_on": "HCC2935", "test": "β-lapachone lethality in NQO1 genotyped cancer cells", "assay_type": "cell-based, human", "description": "as §1"}, "MDA-MB-468/Breast": {"tested_on": "MDA-MB-468/Breast", "test": "β-lapachone lethality in NQO1 genotyped cancer cells", "assay_type": "cell-based, human", "description": "as §1"}, "HCC1171/NSCLC": {"tested_on": "HCC1171/NSCLC", "test": "β-lapachone lethality in NQO1 genotyped cancer cells", "assay_type": "cell-based, human", "description": "as §1"}, "HCC366/NSCLC": {"tested_on": "HCC366/NSCLC", "test": "β-lapachone lethality in NQO1 genotyped cancer cells", "assay_type": "cell-based, human", "description": "as §1"}, "T47D/BreastCancer": {"tested_on": "T47D/BreastCancer", "test": "β-lapachone lethality in NQO1 genotyped cancer cells", "assay_type": "cell-based, human", "description": "as §1"}, "H1993": {"tested_on": "H1993", "test": "β-lapachone lethality in NQO1 genotyped cancer cells", "assay_type": "cell-based, human", "description": "as §1"}, "H1648": {"tested_on": "H1648", "test": "β-lapachone lethality in NQO1 genotyped cancer cells", "assay_type": "cell-based, human", "description": "as §1"}, "H322": {"tested_on": "H322", "test": "β-lapachone lethality in NQO1 genotyped cancer cells", "assay_type": "cell-based, human", "description": "as §1"}, "MDA-MB-231/Breast": {"tested_on": "MDA-MB-231/Breast", "test": "β-lapachone lethality in NQO1 genotyped cancer cells", "assay_type": "cell-based, human", "description": "as §1"}, "HCC44": {"tested_on": "HCC44", "test": "β-lapachone lethality in NQO1 genotyped cancer cells", "assay_type": "cell-based, human", "description": "as §1"}, "[1]": {"tested_on": "orthotopic lung tumors, *2/*2 or *3/*3", "test": "Survival of mice bearing orthotopic lung tumors", "assay_type": "in vivo", "details": "*2/*2 or *3/*3 tumors, β-lap-HPβ-CD intravenously, 5 doses every other day", "description": "FIG. 16 depicts NQO1 levels predict response to NQO1 bioactivatable therapies. In (a) LD50 responses of non-small cell lung cancer (NSCLC) cell lines treated with β-Lap for 2 h and harvester 7 days later. LD50 responses were plotted as a function of NQO1 enzymatic levels. The notations, *1/*1 and *2/*2 represent the NQO1 status of each cell line as homozygous wild type (*1/*1) or homozygous polymorphic (*2/*2) genotypes. Note that all heterozygote cells containing one wild-type allele (*1) are wild-type, phenotypically, for NQO1 expression, such that only homozygous *2/*2 or 3/3 are considered non-responsive to NQO1 bioactivatable drugs. Note the high resistance of H596 and H2862 cell lines to β-lapachone compared to all of the wild-type *1/*1 cells with LD50 values less than 5 μM. Note also that *3/*3 SNPs in NQO1 are far more rare than *2/*2 single point mutations in NQO1. In (b), Kaplan-Meier survival curve of mice bearing orthotopic lung tumors implanted with *1/*1 A549 cells. Mice were treated intravenously (5 doses every other day) with β-lap-HPβ-CD or vehicle alone (HPβ-CD). Similar studies with *2/*2 or *3/*3 tumors were performed and these tumors were non-responsive to β-lapachone or other NQO1 bioactivatable drug therapies."}, "NQO1 [2]": {"tested_on": "NQO1", "test": "NQO1 enzyme assays using β-lapachone or the standard menadione substrates", "assay_type": "biochemical, human", "details": "β-lapachone as substrate, HCC44 *1/*2", "description": "(§2) S9 Supernatants were prepared from cells in mid-log to late log phase growth. […] The cell suspensions were sonicated on ice four times, using 10-s pulses, and then centrifuged at 14,000×g for 20 min. The S9 supernatants were aliquoted into microcentrifuge tubes and stored at −80° C. until used. A 1× protease inhibitor cocktail was added to prevent enzyme activity degradation. […] Menadione was used as the electron acceptor. NADH was used as the electron donor.\n(§3) NQO1 activity was measured using NADH (200 μM) as the immediate electron donor and menadione (10 μM) as the intermediate electron acceptor. […] Biochem. Biophys. […] NADH: cytochrome b5 reductase was measured using NADH (200 μM) as the electron donor, and […] was measured using NADPH (200 μM) as electron donor (45) in a Beckman DU 640 spectrophotometer (Beckman Coulter, Fullerton, Calif.). Reactions were carried out at 37° C. and were initiated by the addition of S9 supernatants. Varying amounts of supernatants, from 10 to 40 μL, were used to ensure linearity of rates with protein concentration. […] Results shown are the average enzyme activity for three separate cell extractions±S.D. or both values from duplicate experiments.\nas §1, with “Cell line responses to β-lapachone exposures (μM, 2 h) were then assessed and lethal doses causing 50% lethality with or without dicoumarol (40 μM) co-treatments were recorded.” left out"}, "NQO1 [3]": {"target": "T1, NQO1 (Homo sapiens, UniProt P15559, R139W)", "T1 construct": "S9 Supernatants were prepared from cells in mid-log to late log phase growth; endogenous in cells; host or cells: cancer cell lines, mostly from a non-small cell lung cancer panel (e.g. Calu-3); S9 supernatants", "T1 sequence (P15559 whole entry R139W)": "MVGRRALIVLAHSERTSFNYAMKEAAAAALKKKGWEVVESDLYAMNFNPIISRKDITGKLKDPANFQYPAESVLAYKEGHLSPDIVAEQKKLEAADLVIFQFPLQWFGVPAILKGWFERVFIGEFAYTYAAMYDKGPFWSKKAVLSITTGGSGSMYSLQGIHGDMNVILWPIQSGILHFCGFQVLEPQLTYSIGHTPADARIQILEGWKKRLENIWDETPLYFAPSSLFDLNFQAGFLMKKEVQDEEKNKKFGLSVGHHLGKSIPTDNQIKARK", "test": "NQO1 enzyme assays using β-lapachone or the standard menadione substrates", "assay_type": "biochemical", "details": "β-lapachone as substrate", "description": "as §2, §3\nas §1, with “Cell line responses to β-lapachone exposures (μM, 2 h) were then assessed and lethal doses causing 50% lethality with or without dicoumarol (40 μM) co-treatments were recorded.” left out"}, "[4]": {"details": "*3/*3, 2 h, + dicoumarol (40 μM)"}, "[5]": {"details": "NQO1 genotype *3/*3, 2 h exposure"}, "[6]": {"details": "*2/*2, 2 h, + dicoumarol (40 μM)"}, "[7]": {"details": "NQO1 genotype *2/*2, 2 h exposure"}},
  "data": [
    {"compound": "CC1(C)CCC2=C(O1)c1ccccc1C(=O)C2=O", "note": "[β-Lap, 3,4-dihydro-2,2-dimethyl-2H-naphtho[1,2-b]pyran-5,6-dione]", "values": [
      {"measurement": "LD50 + DIC", "setting": "Calu-3/NSCLC; [4]", "value": 3, "unit": "µM"},
      {"measurement": "β-Lap Lethality LD50", "setting": "Calu-3/NSCLC; [5]", "value": 2.4, "unit": "µM"},
      {"measurement": "LD50 + DIC", "setting": "H2073; H2073, *1/*1, 2 h, + dicoumarol (40 μM)", "value": ">10", "unit": "µM"},
      {"measurement": "β-Lap Lethality LD50", "setting": "H2073; H2073, NQO1 genotype *1/*1, 2 h exposure", "value": 1.8, "unit": "µM"},
      {"measurement": "LD50 + DIC", "setting": "HCC2935; HCC2935, *1/*3, 2 h, + dicoumarol (40 μM)", "value": ">10", "unit": "µM"},
      {"measurement": "β-Lap Lethality LD50", "setting": "HCC2935; HCC2935, NQO1 genotype *1/*3, 2 h exposure", "value": 1.0, "unit": "µM"},
      {"measurement": "LD50 + DIC", "setting": "MDA-MB-468/Breast; [6]", "value": ">10", "unit": "µM"},
      {"measurement": "β-Lap Lethality LD50", "setting": "MDA-MB-468/Breast; [7]", "value": ">10", "unit": "µM"},
      {"measurement": "LD50 + DIC", "setting": "HCC1171/NSCLC; [4]", "value": 2, "unit": "µM"},
      {"measurement": "β-Lap Lethality LD50", "setting": "HCC1171/NSCLC; [5]", "value": 3, "unit": "µM"},
      {"measurement": "LD50 + DIC", "setting": "HCC366/NSCLC; [6]", "value": ">10", "unit": "µM"},
      {"measurement": "β-Lap Lethality LD50", "setting": "HCC366/NSCLC; [7]", "value": ">10", "unit": "µM"},
      {"measurement": "LD50 + DIC", "setting": "T47D/BreastCancer; [4]", "value": 4, "unit": "µM"},
      {"measurement": "β-Lap Lethality LD50", "setting": "T47D/BreastCancer; [5]", "value": 4, "unit": "µM"},
      {"measurement": "LD50 + DIC", "setting": "H1993; H1993, *1/*1, 2 h, + dicoumarol (40 μM)", "value": ">10", "unit": "µM"},
      {"measurement": "β-Lap Lethality LD50", "setting": "H1993; H1993, NQO1 genotype *1/*1, 2 h exposure", "value": 1.8, "unit": "µM"},
      {"measurement": "LD50 + DIC", "setting": "H1648; H1648, *1/*1, 2 h, + dicoumarol (40 μM)", "value": ">20", "unit": "µM"},
      {"measurement": "β-Lap Lethality LD50", "setting": "H1648; H1648, NQO1 genotype *1/*1, 2 h exposure", "value": 4.1, "unit": "µM"},
      {"measurement": "LD50 + DIC", "setting": "H322; H322, *1/*1, 2 h, + dicoumarol (40 μM)", "value": ">20", "unit": "µM"},
      {"measurement": "β-Lap Lethality LD50", "setting": "H322; H322, NQO1 genotype *1/*1, 2 h exposure", "value": 5.7, "unit": "µM"},
      {"measurement": "LD50 + DIC", "setting": "MDA-MB-231/Breast; [6]", "value": ">10", "unit": "µM"},
      {"measurement": "β-Lap Lethality LD50", "setting": "MDA-MB-231/Breast; [7]", "value": ">10", "unit": "µM"},
      {"measurement": "LD50 + DIC", "setting": "HCC44; HCC44, *1/*2, 2 h, + dicoumarol (40 μM)", "value": ">10", "unit": "µM"},
      {"measurement": "β-Lap Lethality LD50", "setting": "HCC44; HCC44, NQO1 genotype *1/*2, 2 h exposure", "value": 2.8, "unit": "µM"},
      {"measurement": "Response of tumors", "setting": "[1]", "value": "non-responsive"},
      {"measurement": "NQO1 activity, β-Lap", "setting": "NQO1 [2]", "value": "879 ± 14", "unit": "nmol/min/µg"},
      {"measurement": "NQO1 activity, β-Lap", "setting": "NQO1 [3]; Calu-3/NSCLC *3/*3", "value": "243 ± 2", "unit": "nmol/min/µg"},
      {"measurement": "NQO1 activity, β-Lap", "setting": "NQO1 [3]; H2009/NSCLC *3/*3", "value": "120 ± 3", "unit": "nmol/min/µg"},
      {"measurement": "NQO1 activity, β-Lap", "setting": "NQO1 [3]; HCC1171/NSCLC *3/*3", "value": "369 ± 9", "unit": "nmol/min/µg"},
      {"measurement": "NQO1 activity, β-Lap", "setting": "NQO1 [3]; T47D/BreastCancer *3/*3", "value": "138 ± 3", "unit": "nmol/min/µg"}
    ]}
  ]
}
